# Source: publication PMC9596378, “Discovery and molecular basis of subtype-selective cyclophilin inhibitors” (Nature Chemical Biology, 2022)
# Several values for one entry are separate records, joined by “and”; a condition that tells them apart may be missing. Identical values can stand only once. Entries after “also recorded” stand apart in the source; their conditions may differ. Like-named read-outs stand apart in the source and are kept apart here.
# Legend:
# [1] = In vitro ester pro-drug stability, buffer only; format: in vitro ADME; conditions: 8 h, 6 µM, pH 7.4
# Experimental: (§1) In PCR tubes, ester compound (6 µM) and either buffer only, CES1 (0.25 µM), or CES2 (0.25 µM) was diluted in 100 mM Tris-HCl buffer, pH 7.4, with a final DMSO concentration of 1%. Samples were maintained on a PCR block at 37 °C for 8 h. After incubation, samples were diluted with 20 µL acetonitrile and analyzed by LC–MS at Harvard’s Center for Mass Spectroscopy. Di-ester, mono-ester, and di-acid abundances were quantified by total ion count of the primary isotope and the three compounds were summed and each one expressed as a fraction of the total sum.
# [2] = tested on: HEK293T cells; assay: Cellular esterase activity on ester pro-drugs; format: in vitro ADME, human; parameters: unit not given here; conditions: HEK293T intracellular (9f); three replicate columns
# Experimental: (§2) Cells were seeded in 96-well, clear, flat-bottom, TC-treated plates in DMEM supplemented with 10% FBS for HEK293T, HeLa, and MEFs, F-12K supplemented with 10% FBS for A549, or MEM supplemented with 10% FBS for HepG2. Cells were seeded 24 h prior at a density where wells were ~70% confluent at the time of the experiment. Medium was removed and cells were incubated with 100 µL mixture containing each Cy5-conjugated compound (6 µM) in their respective medium at 1% DMSO for 48 h (36 h for HepG2) at 37 °C at 5% CO2. Supernatant was removed, and cells were washed twice with 100 µL PBS pH 7.4 (Gibco). Cells were then lysed for 15 min with 30 µL 10 mM Tris-HCl pH 8.0 buffer containing 0.05% SDS. Lysates were diluted with 100 µL acetonitrile and filtered. Lysates were analyzed by LC–MS at Harvard’s Center for Mass Spectroscopy. Di-ester, mono-ester, and di-acid abundances were quantified by total ion count of the primary isotope, and the three compounds were summed and each one expressed as a fraction of the total sum.
# [3] = tested on: HeLa cells; assay: Cellular esterase activity on ester pro-drugs; format: in vitro ADME, human; parameters: unit not given here; conditions: Hela intracellular (9e); three replicate columns
# Experimental: as §2
# [4] = molecular target: CypD (Homo sapiens, UniProt P30405); assay: Chymotrypsin coupled prolyl-isomerase assay
# Experimental: Five microliters of compound pre-dissolved in 5% DMSO/assay buffer was then added to appropriate wells and incubated at 2–3 °C for 5 min. Five microliters of 0.5 mM α-chymotrypsin from bovine pancreas (Type II, lyophilized powder, Millipore-Sigma) in 20% 1 mM HCl/Assay Buffer was then added to each well and incubated at 2–3 °C for 5 min. The plate was then quickly transferred to a FLIPR Tetra High-Throughput Cellular Screening System (Molecular Devices). Using the internal liquid handling system of the FLIPR, 1 µL 0.5 mM Suc-AAPF-AMC (Chymotrypsin Substrate II, Millipore-Sigma) dissolved in 0.55 M LiCl/2,2,2-trifluoroethanol was added to each well, which was then mixed for 5 s, followed by immediate fluorescence measurements every 1 s for 330 s using a 360–380 nm excitation LED module and a 400–460 nm emission filter. […] Raw fluorescence data was analyzed by non-linear regression analysis with Prism v.9 by fitting one-phase association curves to each well. […] Rate constants calculated for each well (s^−1) were then normalized to substrate only (no prolyl-isomerase) and enzyme + substrate only controls.
# [5] = tested on: MEFs; assay: Cellular esterase activity on ester pro-drugs; format: in vitro ADME, mouse; parameters: unit not given here; conditions: SV40 MEF intracellular (9g); three replicate columns
# Experimental: as §2
# [6] = molecular target: T1, CES1 (Homo sapiens, UniProt P23141); assay: In vitro esterase activity on ester pro-drugs; format: in vitro ADME; parameters: unit not given here; conditions: CES1 (9b); three replicate columns
# T1 construct: purchased R&D Systems
# Experimental: as §1
# [7] = molecular target: T2, CES2 (Homo sapiens, UniProt O00748); assay: In vitro esterase activity on ester pro-drugs; format: in vitro ADME; parameters: unit not given here; conditions: CES2 (9c); three replicate columns
# T2 construct: purchased R&D Systems
# Experimental: as §1
# [8] = tested on: A549 cells; assay: Cellular esterase activity on ester pro-drugs; format: in vitro ADME, human; parameters: Di-ester: unit not given here; conditions: for intracellular conversion to di-acid (in words): A549, HeLa, HEK293T, HepG2, MEFs; for Di-ester: A549 intracellular (9d), three replicate columns
# Experimental: as §2
# [9] = tested on: HepG2 cells; assay: Cellular esterase activity on ester pro-drugs; format: in vitro ADME, human; parameters: unit: %; conditions: HepG2 intracellular (9h); three replicate columns
# Experimental: as §2
# [10] = tested on: HeLa cells; assay: Fluorescence microscopy of Cy5-conjugated compounds; format: cell-based, human
# Experimental: Cells were seeded into 96-well, black, clear-bottom, TC-treated plates, in DMEM supplemented with 10% FBS 24 h prior at a density where wells were ~80% confluent at the time of the experiment. Medium was removed and cells were then stained with 50 µL mixture containing Cy5-labeled compound (6 µM) in Kreb’s ringer solution HEPES buffered pH 7.2 (KRB), for 1 h at 37 °C. Then, 50 µL Hoechst 33342 (8 µM) and Mitotracker Green FM (0.1 µM) in KRB was added directly to wells containing cells and incubated for 15 min at 37 °C. Medium was removed and cells were washed twice with 100 µL KRB. Cells were then kept adherent to the wells in 100 µL KRB for imaging. Fluorescence microscopy was conducted on an Opera Phenix Plus High-Content Screening System, using Alexa 488, Alexa 647, and Hoescht 33342 channels. Images were analyzed using Harmony v.4.9.
# [11] = read-out: Wild-Type Cyclophilin Prolyl Isomerase Inhibition IC50 Values, CypD, wild-type CypD
# T1 sequence (P23141 18-567): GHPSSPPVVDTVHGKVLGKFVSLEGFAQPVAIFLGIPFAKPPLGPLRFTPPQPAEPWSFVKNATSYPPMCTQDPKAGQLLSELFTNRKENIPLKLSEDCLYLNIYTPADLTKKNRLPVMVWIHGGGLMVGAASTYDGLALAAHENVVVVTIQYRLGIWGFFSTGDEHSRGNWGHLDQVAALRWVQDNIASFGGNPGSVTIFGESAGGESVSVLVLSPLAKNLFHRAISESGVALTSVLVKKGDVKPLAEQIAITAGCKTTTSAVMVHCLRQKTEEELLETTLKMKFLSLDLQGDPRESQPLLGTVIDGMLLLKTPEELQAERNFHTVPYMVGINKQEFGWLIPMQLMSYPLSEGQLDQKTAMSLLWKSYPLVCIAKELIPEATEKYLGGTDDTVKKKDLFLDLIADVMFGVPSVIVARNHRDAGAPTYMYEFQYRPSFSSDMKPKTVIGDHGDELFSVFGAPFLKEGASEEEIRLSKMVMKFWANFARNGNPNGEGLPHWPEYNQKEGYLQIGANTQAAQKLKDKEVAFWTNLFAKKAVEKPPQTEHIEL
# T2 sequence (O00748 27-559): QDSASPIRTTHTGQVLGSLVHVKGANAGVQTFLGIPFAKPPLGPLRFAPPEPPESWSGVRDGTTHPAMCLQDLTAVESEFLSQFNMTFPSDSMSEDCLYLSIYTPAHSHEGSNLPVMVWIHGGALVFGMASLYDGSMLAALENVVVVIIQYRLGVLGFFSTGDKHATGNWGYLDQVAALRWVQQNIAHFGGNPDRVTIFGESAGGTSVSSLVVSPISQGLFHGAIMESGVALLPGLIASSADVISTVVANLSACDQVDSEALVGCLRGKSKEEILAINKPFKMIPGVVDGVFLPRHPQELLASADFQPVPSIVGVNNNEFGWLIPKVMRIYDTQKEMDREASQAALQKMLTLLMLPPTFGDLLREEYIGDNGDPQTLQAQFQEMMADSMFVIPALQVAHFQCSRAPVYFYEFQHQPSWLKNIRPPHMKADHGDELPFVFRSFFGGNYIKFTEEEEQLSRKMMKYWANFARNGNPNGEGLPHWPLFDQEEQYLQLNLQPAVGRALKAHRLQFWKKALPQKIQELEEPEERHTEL
# Chain of CypD (P30405 45-207): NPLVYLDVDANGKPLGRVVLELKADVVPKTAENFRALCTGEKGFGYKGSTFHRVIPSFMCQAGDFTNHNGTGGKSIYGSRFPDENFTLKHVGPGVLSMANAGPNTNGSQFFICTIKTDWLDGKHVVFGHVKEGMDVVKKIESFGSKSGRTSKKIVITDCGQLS
Compound,Di-acid [1],Di-ester [1],Mono-ester [1],Di-ester [2],Di-ester [3],"IC50 [4, 11] [nM]",Di-ester [5],Di-ester [6],Di-ester [7],intracellular conversion to di-acid (in words) [8],Di-ester [8],Di-ester [9],plasma membrane permeability / mitochondrial localization (in words) [10],"IC50 ([4]; read-out: IC50 CypD, prolyl-isomerase inhibition, 5 nM cyclophilin, Suc-AAPF-AMC, mean±s.e.m. of 3 technical replicates (B52, B53, C3A wild-type: mean±s.d. of 4 independent replicates)) [nM]"
CCOC(=O)C(Cc1ccc(-c2ccc(CC3NC(=O)C4(Cc5ccccc5)CCCN(C4)C(=O)C=CC(=O)NCCC(C(=O)NCCNC(=O)CCCCCN4C(=CC=CC=CC5=[N+](C)c6ccccc6C5(C)C)C(C)(C)c5ccccc54)NC(=O)Cc4ccccc4CNC3=O)cc2)cc1)C(=O)OCC (stereo not shown) [Compound B52-Et-Cy5],0,100,0,9 and 11 and 8,1,> 2000,8 and 6 and 7,13 and 14 and 16,30 and 35 and 21,readily converted to the corresponding di-acids intracellularly,0 (2×) and 1,45 and 44 and 43,good mitochondrial localization; also recorded: good plasma membrane permeability,
CCOC(=O)CC(CC(=O)OCC)c1ccc(-c2ccc(CC3NC(=O)C4(Cc5ccccc5)CCCN(C4)C(=O)C=CC(=O)NCCC(C(=O)NCCNC(=O)CCCCCN4C(=CC=CC=CC5=[N+](C)c6ccccc6C5(C)C)C(C)(C)c5ccccc54)NC(=O)Cc4ccccc4CNC3=O)cc2)cc1 (stereo not shown) [Compound B53-Et-Cy5],0,100,0,74 (2×) and 72,20 and 12 (2×),> 2000,36 and 40 and 39,12 and 10 and 13,21 (2×) and 11,readily converted to the corresponding di-acids intracellularly,18 and 14 and 21,67 and 68 (2×),good mitochondrial localization; also recorded: good plasma membrane permeability,
"CC(=O)NCCNC(=O)CCCCCN1\C(=C/C=C/C=C/C2=[N+](C)c3ccccc3C2(C)C)C(C)(C)c2ccccc21 [Cy5-enAc, reference compound]",,,,,,,,,,,,,good mitochondrial localization,> 2000
